Biological target: T1, TLR9 (Homo sapiens, UniProt Q9NR96)
T1 construct: expressed in transfected cells; host or cells: HEK293
T1 sequence (Q9NR96 26-1032): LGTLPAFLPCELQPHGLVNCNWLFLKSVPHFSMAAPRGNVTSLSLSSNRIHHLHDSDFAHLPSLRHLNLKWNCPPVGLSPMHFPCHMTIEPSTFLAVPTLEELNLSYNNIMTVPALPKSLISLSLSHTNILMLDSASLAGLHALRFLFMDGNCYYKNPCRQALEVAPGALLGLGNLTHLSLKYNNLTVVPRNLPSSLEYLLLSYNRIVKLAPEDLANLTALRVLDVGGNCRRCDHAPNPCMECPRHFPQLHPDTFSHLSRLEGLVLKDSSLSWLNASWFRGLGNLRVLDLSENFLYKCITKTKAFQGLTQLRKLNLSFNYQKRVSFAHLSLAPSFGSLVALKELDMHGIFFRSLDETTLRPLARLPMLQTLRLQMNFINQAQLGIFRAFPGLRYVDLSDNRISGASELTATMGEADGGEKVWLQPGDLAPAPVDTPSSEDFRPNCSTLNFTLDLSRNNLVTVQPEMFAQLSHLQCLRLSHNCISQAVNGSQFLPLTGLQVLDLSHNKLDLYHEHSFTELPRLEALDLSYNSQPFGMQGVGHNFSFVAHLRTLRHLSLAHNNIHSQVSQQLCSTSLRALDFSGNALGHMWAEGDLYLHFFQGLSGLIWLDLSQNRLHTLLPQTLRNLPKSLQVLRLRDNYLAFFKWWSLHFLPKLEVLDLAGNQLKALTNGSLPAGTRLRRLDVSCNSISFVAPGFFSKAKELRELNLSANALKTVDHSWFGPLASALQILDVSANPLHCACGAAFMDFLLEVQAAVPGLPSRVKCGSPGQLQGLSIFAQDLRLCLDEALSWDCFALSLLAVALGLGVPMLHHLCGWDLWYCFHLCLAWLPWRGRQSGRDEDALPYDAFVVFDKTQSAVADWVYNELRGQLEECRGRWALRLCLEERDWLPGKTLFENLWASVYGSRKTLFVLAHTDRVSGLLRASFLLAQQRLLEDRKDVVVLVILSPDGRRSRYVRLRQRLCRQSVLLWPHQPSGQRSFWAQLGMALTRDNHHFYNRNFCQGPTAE
Experiment: TLR9 screening of (+)-morphinan library, SEAP reporter in HEK293 cells expressing TLR9
Type: cell-based
Settings: activator ODN2006; for OD 650 nm (mean ± sd): control (no activator) 0.14, activator 1.42 OD; for inhibition at 0.1 µM: HEK293, read-out: % Inhibition (mean), 100 nM; for inhibition at 10 µM: HEK293, read-out: % Inhibition (mean), 10 μM
Method: The secreted alkaline phosphatase reporter is under the control of a promoter inducible by the transcription factor NF-κB. A library of more than 100 (+)-morphinan compounds was screened for TLR9 antagonist activity by assessing NF-κB activation in the HEK293 cells expressing TLR9. This reporter gene allows the monitoring of signaling through the TLR, based on the activation of NF-κB.
In a 96-well plate (200 μL total volume) containing 50,000 cells/well, 20 μL of each sample compound was added to wells, in triplicate, followed by a 30 minute incubation at 37° C. and 5% CO2. After the 30 minutes of incubation, 20 μL of the activator ODN2006 was added to each well. The media added to the wells was designed for the detection of NF-κB induced SEAP expression. After a 16-20 hr incubation period, the OD at 650 nm was read on a Beckman Coulter AD 340C Absorbance Detector. All compounds were tested at concentrations of 10 μM and 100 nM.

Row | Structure (SMILES) | OD 650 nm (mean ± sd) (100 nM) [OD] | OD 650 nm (mean ± sd) (10 μM) [OD] | inhibition at 0.1 µM [%] | inhibition at 10 µM [%] | % Inhibition (mean) (100 nM, 0.1 µM) [%]
1 | C=CCN1CC[C@]23C4=CC=C(OC)[C@H]2Oc2c(OC)ccc(c23)C[C@@H]41 [II-35] | 1.04 ± 0.08 | 0.34 ± 0.03 | 27 | 76 | –
2 | COC1=CC=C2[C@@H]3Cc4ccc(OC)c5c4[C@]2(CCN3CC2CC2)[C@@H]1O5 [II-36] | 1.14 ± 0.02 | 0.14 ± 0.01 | 20 | 90 | –
3 | COC1=CC=C2[C@@H]3Cc4ccc(OC)c5c4[C@]2(CCN3CC2CCC2)[C@@H]1O5 [II-37] | 1.13 ± 0.07 | 0.18 ± 0.06 | 20 | 87 | –
4 | COc1ccc2c3c1O[C@@H]1C(=O)CC[C@]4(O)[C@H](C2)N(C)CC[C@@]314 [II-39] | 1.23 ± 0.03 | 1.06 ± 0.06 | 14 | 25 | –
5 | COc1ccc2c3c1O[C@@H]1C(O)CC[C@]4(O)[C@H](C2)N(C)CC[C@@]314 (stereo partly shown) [II-40] | 1.41 ± 0.13 | 1.37 ± 0.07 | 0 | 4 | –
6 | C=C1CC[C@]2(O)[C@@H]3Cc4ccc(OC)c5c4[C@]2(CCN3C)[C@@H]1O5 [II-41] | 1.27 ± 0.03 | 1.02 ± 0.09 | 11 | 28 | –
7 | COc1ccc2c3c1O[C@@H]1C(NC(C)=O)CC[C@]4(O)[C@H](C2)N(C)CC[C@@]314 (stereo partly shown) [II-42] | 1.00 ± 0.03 | 0.14 ± 0.02 | 29 | 90 | –
8 | COc1ccc2c3c1O[C@@H]1C(N)CC[C@]4(O)[C@H](C2)N(C)CC[C@@]314 (stereo partly shown) [II-43] | 0.10 ± 0.01 | 0.09 ± 0.00 | 93 | 94 | –
9 | COc1ccc2c3c1O[C@@H]1CCC[C@]4(O)[C@H](C2)N(C)CC[C@@]314 [II-44] | 1.18 ± 0.02 | 1.03 ± 0.12 | 17 | 27 | –
10 | COc1ccc2c3c1O[C@@H]1[C@@H]4CCC5(O4)[C@H](C2)N(C)CC[C@@]315 [II-46] | 1.24 ± 0.02 | 1.30 ± 0.02 | 13 | 8 | –
11 | C=CCN1CC[C@@]23c4c5ccc(OC)c4O[C@@H]2C(=O)CC[C@]3(O)[C@@H]1C5 [II-47] | 1.18 ± 0.13 | 0.78 ± 0.07 | 17 | 45 | –
12 | C=CCN1CC[C@@]23c4c5ccc(OC)c4O[C@@H]2C(=C)CC[C@]3(O)[C@@H]1C5 [II-51] | 1.20 ± 0.04 | 0.84 ± 0.05 | 16 | 41 | –
13 | COc1ccc2c3c1O[C@@H]1C(O)CC[C@]4(O)[C@H](C2)N(CC2CCC2)CC[C@@]314 (stereo partly shown) [II-55] | 1.46 ± 0.08 | 1.17 ± 0.08 | -3 | 18 | –
14 | COc1ccc2c3c1O[C@@H]1C(=O)CC[C@@H]4[C@H](C2)N(C(=O)C2CC2)CC[C@@]314 [II-57] | 0.84 ± 0.02 | 1.15 ± 0.03 | – | 19 | 41
15 | COc1ccc2c3c1O[C@@H]1C(=O)CC[C@]4(O)[C@H](C2)N(C(=O)C2CCC2)CC[C@@]314 [II-59] | 1.19 ± 0.07 | 1.41 ± 0.13 | 17 | 1 | –
16 | COc1ccc2c3c1O[C@@H]1C(=O)CC[C@]4(O)[C@H](C2)N(C(=O)c2ccccc2)CC[C@@]314 [II-60] | 1.24 ± 0.04 | 0.17 ± 0.03 | 13 | 88 | –
17 | O=C1CC[C@@H]2[C@@H]3Cc4ccc(O)c5c4[C@]2(CCN3)[C@@H]1O5 [II-61] | 1.23 ± 0.02 | 1.22 ± 0.07 | 13 | 14 | –
18 | CN(C(=O)/C=C/c1ccoc1)[C@H]1CC[C@]2(O)[C@@H]3Cc4ccc(O)c5c4[C@]2(CC[N+]3([O-])CC2CC2)[C@@H]1O5 (stereo partly shown) [II-63] | 0.23 ± 0.07 | 0.13 ± 0.01 | 84 | 91 | –
19 | C=CCN1CC[C@@]23c4c5ccc(O)c4O[C@@H]2C(=O)CC[C@]3(O)[C@@H]1C5 [II-64] | 1.31 ± 0.14 | 0.98 ± 0.01 | 8 | 31 | –
20 | C=CCN1CC[C@@]23c4c5ccc(O)c4O[C@@H]2C(=O)CC[C@]3(OC)[C@@H]1C5 [II-70] | 1.12 ± 0.04 | 0.79 ± 0.03 | 21 | 45 | –
21 | NC1CC[C@]2(O)[C@@H]3Cc4ccc(O)c5c4[C@]2(CCN3CC2CC2)[C@@H]1O5 (stereo partly shown) [II-71] | 0.19 ± 0.01 | 0.10 ± 0.00 | 87 | 93 | –
22 | COc1ccc2c3c1O[C@@H]1[C@@H]4CCC5(O4)[C@H](C2)N(CC2CC2)CC[C@@]315 [II-72] | 1.10 ± 0.02 | 0.49 ± 0.01 | 22 | 65 | –
23 | O=C1CC[C@]2(O)[C@@H]3Cc4ccc(O)c5c4[C@]2(CCN3CC2CC2)[C@@H]1O5 [II-73] | 1.35 ± 0.13 | 0.96 ± 0.08 | 5 | 32 | –
24 | CC(=O)NC1CC[C@]2(O)[C@@H]3Cc4ccc(O)c5c4[C@]2(CCN3CC2CC2)[C@@H]1O5 (stereo partly shown) [II-75] | 1.08 ± 0.02 | 0.91 ± 0.11 | 24 | 36 | –
25 | OCCNC1CC[C@]2(O)[C@@H]3Cc4ccc(O)c5c4[C@]2(CCN3CC2CC2)[C@@H]1O5 (stereo partly shown) [II-76] | 0.16 ± 0.01 | 0.10 ± 0.01 | 89 | 93 | –
